Holding throughout (assay type): in vivo, mouse
The subject of one assay is C57BL/6 mice. Kind of assay: Plasma lipid analysis in C57BL/6 mice. To be noted: oral treatment. An excerpt:
FIG. 8. Plasma lipid levels in animals treated with LXR agonist T0901317. The concentrations of (A) plasma triglycerides and (B) HDL-cholesterol for C57BL/6 mice (n=5, for each treatment group, M, males, F, females). (C) Separation of Golden Syrian hamster plasma by fast protein liquid chromatography (FPLC) in combination with analysis of the triglyceride content across PPLC fractions. Lipid data are reported as the mean ±SD for the number of determinations (animals) described in each experiment. Statistical significance (kybd) was defined as P<0.05 (ANOVA using SAS programming statistical test for controls and LXR agonist-treated animals). C57BL/6 mice (Charles River Laboratories) were between 6 and 10 wk old and weighed ˜20-30 g at the initiation of treatment. Golden Syrian Hamsters (Harlan Sprague-Dawley) were between 12 and 16 wk old (80-150 g). Animals were fed regular chow diets containing ˜4% fat and 0.02% cholesterol (PMI Pi-colab 5053 Chow). LXRα and β−/− mice were reared at the University of Texas Southwestern (UTSW) Medical Center at Dallas in accordance with the Institutional Animal Care and Research Advisory Committee at the UTSW Medical Center. Mice at UTSW were maintained on a 12 h light/12 h dark cycle and fed ad libitum a cereal-based mouse chow diet (No. 7001, Harlan Teklad). Plasma was prepared from euthanized mice using standard centrifugation techniques and analyzed for plasma total cholesterol, HDL cholesterol, and triglyceride concentrations using a Hitachi 704 Clinical Analyzer. FPLC of plasma lipoproteins was accomplished using 200 μL aliquots of pooled plasma (from three to five animals) and fractionated on Superose 6 columns (Pharmacia). Cholesterol, triglyceride, and phospholipid concentrations in the fractions were determined enzymatically with reagents from Boehringer, Sigma, and Wako, respectively. Hepatic lipids were extracted and analyzed for triglyceride essentially as described (Bucolo, G. and David, H., Clin. Chem. 19:476-482 (1973); Yokode et al., Science 250:1273-1275 (1990)).

Another assay has as its system HepG2 cells and mice. Kind of assay: Gene expression microarrays (GEM) of LXR agonist-treated HepG2 cells and mice. To be noted: fold increase vs control; mice 5 mg/kg p.o. 7 d. The protocol: Total RNA extraction and purification for Northern blot analysis was accomplished using the TRI reagent (Molecular Research Center).
To understand the mechanism whereby LXR agonist increased plasma triglycerides, changes in global gene expression in response to LXR agonist treatment were assessed by gene expression micrarrays (GEM) and Northern blot analysis. The GEM experiments were carried out using RNA derived from control and LXR agonist-treated HepG2 cells and mice. […] In addition, a prominent subset of >20 fatty acid metabolism-associated genes was increased by LXR agonist. This subset included fatty acid synthase, carnitine palmitoyltransferase 1, acyl-CoA-binding protein, acyl glycerol-3 phosphate acyltransferase, fatty acid amide hydrolase, acyl carrier protein, fatty acid binding and transport proteins, and colipase, a small protein cofactor required by lipase for the efficient hydrolysis of dietary lipid. Up-regulation of liver and intestinal phosphoethanolamine cytidylyltransferase, a key regulatory enzyme in the CDP-ethanolamine pathway for phosphatidylethanolamine synthesis, was also noted.

The subject of a further assay is wild-type mice. The assay is described as follows: Plasma and hepatic lipid analysis in wild-type mice. The note with it: 7 d. On the procedure: FIG. 10. Agonist T0901317-mediated increases in hepatic and plasma triglyceride levels and lipogenic mRNA requires LXRs. Analysis of the lipid content of livers and plasma from vehicle- and T0901317-created wild-type and LXRα/β-/- mice (n=5 for each of the four groups shown, treatment for 7 d). Pooled plasma (50 μL from each of five mice per group) was fractionated and lipids analyzed as described. Shown are the concentrations for (A) FPLC triglyceride, (B) FPLC phospholipid, and (C) hepatic triglyceride. (D) Northern blot analysis of hepatic SREEP-I, SREBP-2, SCD-1, FAS, and ACC mRNA levels.
C57BL/6 mice (Charles River Laboratories) were between 6 and 10 wk old and weighed ˜20-30 g at the initiation of treatment. Golden Syrian Hamsters (Harlan Sprague-Dawley) were between 12 and 16 wk old (80-150 g). Animals were fed regular chow diets containing ˜4% fat and 0.02% cholesterol (PMI Pi-colab 5053 Chow). LXRα and β−/− mice were reared at the University of Texas Southwestern (UTSW) Medical Center at Dallas in accordance with the Institutional Animal Care and Research Advisory Committee at the UTSW Medical Center. Mice at UTSW were maintained on a 12 h light/12 h dark cycle and fed ad libitum a cereal-based mouse chow diet (No. 7001, Harlan Teklad).
Plasma was prepared from euthanized mice using standard centrifugation techniques and analyzed for plasma total cholesterol, HDL cholesterol, and triglyceride concentrations using a Hitachi 704 Clinical Analyzer. FPLC of plasma lipoproteins was accomplished using 200 μL aliquots of pooled plasma (from three to five animals) and fractionated on Superose 6 columns (Pharmacia). Cholesterol, triglyceride, and phospholipid concentrations in the fractions were determined enzymatically with reagents from Boehringer, Sigma, and Wako, respectively. Hepatic lipids were extracted and analyzed for triglyceride essentially as described (Bucolo, G. and David, H., Clin. Chem. 19:476-482 (1973); Yokode et al., Science 250:1273-1275 (1990)).

Another assay relates to LXRα/β−/− mice. The assay is described as follows: Plasma and hepatic lipid analysis in LXRα/β−/− mice. The protocol: FIG. 10. […] Pooled plasma (50 μL from each of five mice per group) was fractionated and lipids analyzed as described. Shown are the concentrations for (A) FPLC triglyceride, (B) FPLC phospholipid, and (C) hepatic triglyceride. (D) Northern blot analysis of hepatic SREEP-I, SREBP-2, SCD-1, FAS, and ACC mRNA levels.
C57BL/6 mice (Charles River Laboratories) were between 6 and 10 wk old and weighed ˜20-30 g at the initiation of treatment. Golden Syrian Hamsters (Harlan Sprague-Dawley) were between 12 and 16 wk old (80-150 g). […] LXRα and β−/− mice were reared at the University of Texas Southwestern (UTSW) Medical Center at Dallas in accordance with the Institutional Animal Care and Research Advisory Committee at the UTSW Medical Center.
FPLC of plasma lipoproteins was accomplished using 200 μL aliquots of pooled plasma (from three to five animals) and fractionated on Superose 6 columns (Pharmacia). Cholesterol, triglyceride, and phospholipid concentrations in the fractions were determined enzymatically with reagents from Boehringer, Sigma, and Wako, respectively.

The structures appear in SMILES notation.

For the compound `O=S(=O)(c1ccccc1)N(CC(F)(F)F)c1ccc(C(O)(C(F)(F)F)C(F)(F)F)cc1` [T0901317, N-(2,2,2-trifluoro-ethyl)-N-[4-(2,2,2-trifluoro-1-hydroxy-1-trifluoromethyl-ethyl)-phenyl]-benzenesulfonamide], in the assay on C57BL/6 mice, the HDL-phospholipid result was “comparable increases”, the “plasma total cholesterol (mainly HDL cholesterol)” value is “comparable increases”, the plasma triglycerides entry is on record as “significant elevations” and the “plasma very low density lipoproteins (VLDL) triglycerides” value is “Increases”. In the assay with HepG2 cells and mice, the “SREBP-1 expression (GEM)” value is “twofold” and the “fatty acid synthase expression (GEM)” value was “twofold”. Moreover, in the assay with wild-type mice (wild type mice, fold increase), the “plasma VLDL-triglyceride (FPLC)” value is given as “threefold”. Moreover, the total plasma triglycerides in the assay with wild-type mice (wild-type mice) was found to be 225.7 ± 7 mg/dL. For the same compound, the hepatic triglyceride result in the assay on wild-type mice (wild-type mice, fold vs vehicle-treated controls) is listed as “fivefold”. The total plasma triglyceride result with LXRα/β−/− mice (LXRα/β−/− mice vs vehicle-treated LXRα/β−/−) is listed as “scant increases”. In addition, in the assay on LXRα/β−/− mice (LXRα/β−/− mice, 7 d), the hepatic triglyceride levels entry is given as “no significant elevation” and the “plasma VLDL-triglyceride” value is given as “relatively minute increase”.

Source of the values: patent publication US20020048572A1, “Treatment of hypertriglyceridemia and other conditions using LXR modulators” (priority 2000, published 2002).
